Data as given in ChEMBL document CHEMBL1201862, “PubChem BioAssay data set” (2004).
Where a name gives a salt, the structure may show the parent alone.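 Growth conditions: 96-well plates. Treatment: test compound, 48 hours, 5 concentrations. Analysis: linear interpolation between bracketing concentrations; unreached endpoints set to highest concentration. At the GI50, growth is halved.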 Activity calls are given as the source filed them. Rule as the data show it: active = GI50 up to about 1.1 µM and inactive = higher.

What was measured:
Test in all cases: NCI anticancer screen, dose series, 48 h
[1] = system: HCT-15
[2] = system: ACHN
[3] = system: DMS-114
[4] = system: PC-3
[5] = system: NCI-H23
[6] = system: M14
[7] = system: CCRF-CEM
[8] = system: T47D
[9] = system: COLO 205
[10] = system: HL-60
[11] = system: OVCAR-5
[12] = system: DLD-1
[13] = system: SN12C
[14] = system: LOX IMVI
[15] = system: HCC 2998
[16] = system: UACC-62
[17] = system: RXF 393
[18] = system: NCI-H226
[19] = system: A549
[20] = system: MDA-MB-231
[21] = system: SF-295
[22] = system: MCF7
[23] = system: A498
[24] = system: NCI/ADR-RES
[25] = system: UO-31
[26] = system: M19-MEL
[27] = system: SF-539
[28] = system: LXFL 529
[29] = system: Malme-3M
[30] = system: HCT-116
[31] = system: SNB-19
[32] = system: OVCAR-8
[33] = system: IGROV-1
[34] = system: EKVX
[35] = system: NCI-H522
[36] = system: SR
[37] = system: CAKI-1
[38] = system: HOP-92
[39] = system: SK-MEL-28
[40] = system: DU-145
[41] = system: HOP-62
[42] = system: MOLT-4
[43] = system: KM12
[44] = system: SNB-78
[45] = system: SK-MEL-5
[46] = system: HOP-18
[47] = system: BT-549
[48] = system: RXF 631
[49] = system: SNB-75
[50] = system: DMS-273
[51] = system: K562
[52] = system: U-251
[53] = system: SW-620
[54] = system: OVCAR-3
[55] = system: SK-OV-3
[56] = system: HT-29
[57] = system: OVCAR-4
[58] = system: RPMI-8226
[59] = system: MDA-MB-435
[60] = system: TK-10
[61] = system: SK-MEL-2
[62] = system: Hs-578T
[63] = system: SF-268
[64] = system: 786-0
[65] = system: KM-20L2
[66] = system: MDA-N
[67] = system: NCI-H460
[68] = system: XF498

## NCCSSCCN [CYSTAMINE HYDROCHLORIDE]
[1]
  GI50: > 100 µM
[2]
  GI50: > 100 µM (inactive)
[3]
  GI50: > 100 µM (inactive)
[4]
  GI50: > 100 µM (inactive)
[5]
  GI50: > 100 µM (inactive)
[6]
  GI50: > 100 µM (inactive)
[7]
  GI50: 56.1 µM (inactive)
[8]
  GI50: > 100 µM (inactive)
[9]
  GI50: > 100 µM (inactive)
[10]
  GI50: > 100 µM (inactive)
[11]
  GI50: > 100 µM (inactive)
[12]
  GI50: > 100 µM (inactive)
[13]
  GI50: > 100 µM (inactive)
[14]
  GI50: > 100 µM (inactive)
[15]
  GI50: > 100 µM (inactive)
[16]
  GI50: > 100 µM (inactive)
[17]
  GI50: > 100 µM (inactive)
[18]
  GI50: > 100 µM (inactive)
[19]
  GI50: > 100 µM (inactive)
[20]
  GI50: > 100 µM (inactive)
[21]
  GI50: > 100 µM (inactive)
[22]
  GI50: > 100 µM (inactive)
[23]
  GI50: > 100 µM (inactive)
[24]
  GI50: > 100 µM (inactive)
[25]
  GI50: > 100 µM (inactive)
[26]
  GI50: > 100 µM (inactive)
[27]
  GI50: > 100 µM (inactive)
[28]
  GI50: > 100 µM (inactive)
[29]
  GI50: > 100 µM (inactive)
[30]
  GI50: > 100 µM (inactive)
[31]
  GI50: > 100 µM (inactive)
[32]
  GI50: > 100 µM (inactive)
[33]
  GI50: > 100 µM (inactive)
[34]
  GI50: > 100 µM (inactive)
[35]
  GI50: > 100 µM (inactive)
[36]
  GI50: > 100 µM (inactive)
[37]
  GI50: > 100 µM (inactive)
[38]
  GI50: > 100 µM (inactive)
[39]
  GI50: > 100 µM (inactive)
[40]
  GI50: > 100 µM (inactive)
[41]
  GI50: > 100 µM (inactive)
[42]
  GI50: > 100 µM (inactive)
[43]
  GI50: > 100 µM (inactive)
[44]
  GI50: > 100 µM (inactive)
[45]
  GI50: > 100 µM (inactive)
[46]
  GI50: > 100 µM (inactive)
[47]
  GI50: > 100 µM (inactive)
[48]
  GI50: > 100 µM (inactive)
[49]
  GI50: > 100 µM (inactive)
[50]
  GI50: > 100 µM (inactive)
[51]
  GI50: > 100 µM (inactive)
[52]
  GI50: > 100 µM (inactive)
[53]
  GI50: > 100 µM (inactive)
[54]
  GI50: > 100 µM (inactive)
[55]
  GI50: > 100 µM (inactive)
[56]
  GI50: > 100 µM (inactive)
[57]
  GI50: > 100 µM (inactive)
[58]
  GI50: > 100 µM (inactive)
[59]
  GI50: > 100 µM (inactive)
[60]
  GI50: > 100 µM (inactive)
[61]
  GI50: > 100 µM (inactive)
[62]
  GI50: > 100 µM (inactive)
[63]
  GI50: > 100 µM (inactive)
[64]
  GI50: > 100 µM (inactive)
[65]
  GI50: > 100 µM (inactive)
[66]
  GI50: > 100 µM (inactive)
[67]
  GI50: > 100 µM (inactive)
[68]
  GI50: > 100 µM (inactive)
